Test results: publication PMC11062899, “De novo development of small cyclic peptides that are orally bioavailable” (Nature Chemical Biology, 2023)
Where “and” joins values, the source holds several entries; their conditions need not be identical. Identical values can stand only once.

Legend:
[1] = biological target: human α-thrombin (Homo sapiens, UniProt P00734); assay: Protease inhibition, Ki for human α-thrombin (fluorogenic substrate Z-Gly-Gly-Arg-AMC); format: biochemical; conditions: replicates R1-R3
Procedure, shortened: (§1)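 Ki derived through Cheng–Prusoff from IC50s (four-parameter logistic fit) against activity of peptide-free controls. Product fluorescence was read every 3 min over 30 min at 25 °C, substrate Z-Gly-Gly-Arg-AMC at 50 μM. Enzyme was 2 nM human or 3 nM rat α-thrombin, pH 7.4 buffer.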

[2] = biological target: T1, rat α-thrombin (Rattus norvegicus, UniProt P18292); assay: Protease inhibition, Ki for rat α-thrombin (fluorogenic substrate Z-Gly-Gly-Arg-AMC); format: biochemical; conditions: replicates R1-R3
T1 construct: rat α-thrombin (Molecular Innovations) were used at final concentrations of 2 nM and 3 nM; purchased Molecular Innovations
Procedure, shortened: as §1

[3] = biological target: T2, porcine pepsin (Sus scrofa, UniProt P00791); assay: Peptide stability in simulated gastric fluid (SGF); format: in vitro ADME; conditions: for SGF stability, Residual peptide Average / SGF stability, Residual peptide: after 8 h vs 0 h (TIC); for SGF stability, Residual peptide Average: average of R1-R3; for SGF stability, Residual peptide: single replicates R1-R3; for remaining at 8 h: simulated gi fluid, 37 °C, pH 1.2, read-out: Proteolytic stability: SGF (8 h) % remaining
T2 construct: 0.32 g of porcine pepsin (Sigma-Aldrich, P7125) was dissolved under gentle agitation; purchased Sigma-Aldrich P7125
T2 sequence (P00791 60-385): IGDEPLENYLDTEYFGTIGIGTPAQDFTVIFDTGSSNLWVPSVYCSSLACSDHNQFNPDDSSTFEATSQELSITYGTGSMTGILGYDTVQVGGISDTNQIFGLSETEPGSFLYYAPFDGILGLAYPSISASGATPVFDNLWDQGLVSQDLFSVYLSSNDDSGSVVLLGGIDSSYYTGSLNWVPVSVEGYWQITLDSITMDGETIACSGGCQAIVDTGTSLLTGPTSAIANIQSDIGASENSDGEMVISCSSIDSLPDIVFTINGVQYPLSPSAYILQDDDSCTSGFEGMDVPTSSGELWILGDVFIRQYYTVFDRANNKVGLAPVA
Procedure, shortened: (§2)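 Peptide from a 1 mM DMSO stock was added to fluid pre-warmed at 37 °C. SGF was pH 1.2 NaCl with porcine pepsin (0.32 g per 100 ml), and SIF was pH 6.8 potassium phosphate with porcine pancreatin (1 g per 100 ml). Supernatant peptide was quantified by LC–MS, with residual expressed as T1/T0.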

[4] = Peptide stability in simulated intestinal fluid (SIF); format: in vitro ADME, porcine; conditions: simulated gi fluid; 8 h, 37 °C, pH 6.8; read-out: Proteolytic stability: SIF (8 h) % remaining
Procedure, shortened: as §2

[5] = system: porcine pancreatin; assay: as above; format: in vitro ADME; conditions: after 8 h vs 0 h (TIC); for SIF stability, Residual peptide Average: average of R1-R3; for SIF stability, Residual peptide: single replicates R1-R3
Procedure, shortened: as §2

[6] = Passive artificial membrane permeability (PAMPA); conditions: for PAMPA permeability: % permeability: 50 μM, 12–18 h, acceptor concentration relative to equilibrium; for Papp at 50 μM / Permeability% Average / Permeability% R1 / Permeability% R3: PAMPA; for Papp at 50 μM: pH 7.4; for Permeability% Average: average of R1-R3; for Permeability% R1: replicate R1; for Permeability% R1 / Permeability% R3: TIC of top well sample relative to sample at theoretical equilibrium; for Permeability% R3: replicate R3
[7] = Metabolic stability in rat liver microsomes (RLMs); conditions: rat, microsomes
[8] = peptide 1.33E+02 uM, slope of proteolytic substrate cleavage over time
[9] = CL (ul/min/mg protein) R1, RLM CL, replicate R1
[10] = CL (ul/min/mg protein) R2, RLM CL, replicate R2
[11] = CL (ul/min/mg protein) R3, RLM CL, replicate R3
[12] = Half Life (min) R1, RLM metabolic stability, replicate R1, 0-60 min
[13] = Half Life (min) R2, RLM metabolic stability, replicate R2, 0-60 min
[14] = Half Life (min) R3, RLM metabolic stability, replicate R3, 0-60 min
[15] = Metabolic stability: RLM CL (ul/min/mg), RLMs, mean and SD, three measurements

With `O=C1NCCSCc2cccc(n2)CSC[C@H](NC(=O)c2ccc(Cl)s2)C(=O)N[C@@H](CO)C(=O)NCc2cccc1c2` [compound 27] the “Human alpha thrombin inhibition, slope normalized to DMSO” value ([1]; peptide 1.02E-03 uM) was 98.3 and 96.5 and 99.8, the “Human alpha thrombin inhibition, slope normalized to DMSO” value ([1]; peptide 1.04E+00 uM) was 84.1 and 76.8 and 79.3 and the “Human alpha thrombin inhibition, slope normalized to DMSO” value ([1]; peptide 1.27E-04 uM) was 100.0 and 98.1 and 101.1. For the same compound, the “Human alpha thrombin inhibition, slope normalized to DMSO” value ([1]; peptide 1.30E-01 uM) was 95.4 and 96.3 and 96.1, the “Human alpha thrombin inhibition, slope normalized to DMSO” value [1, 8] was 7.7 and 17.1 and 13.6 and the “Human alpha thrombin inhibition, slope normalized to DMSO” value ([1]; peptide 1.63E-02 uM) was 97.0 and 96.5 and 98.2. The “Human alpha thrombin inhibition, slope normalized to DMSO” value ([1]; peptide 1.67E+01 uM) was 27.2 and 28.7 and 30.2, the “Human alpha thrombin inhibition, slope normalized to DMSO” value ([1]; peptide 2.03E-03 uM) was 100.7 and 96.1 and 100.3 and the “Human alpha thrombin inhibition, slope normalized to DMSO” value ([1]; peptide 2.08E+00 uM) was 72.7 and 80.3 and 72.0. For the same compound, the “Human alpha thrombin inhibition, slope normalized to DMSO” value ([1]; peptide 2.54E-04 uM) was 101.2 and 95.7 and 100.6, the “Human alpha thrombin inhibition, slope normalized to DMSO” value ([1]; peptide 2.60E-01 uM) was 93.2 and 89.7 and 91.7 and the “Human alpha thrombin inhibition, slope normalized to DMSO” value ([1]; peptide 3.18E-05 uM) was 102.0 and 95.9 and 100.7. For the same compound, the “Human alpha thrombin inhibition, slope normalized to DMSO” value ([1]; peptide 3.26E-02 uM) was 97.3 and 93.9 and 91.1, the “Human alpha thrombin inhibition, slope normalized to DMSO” value ([1]; peptide 3.33E+01 uM) was 17.1 and 15.9 (2×) and the “Human alpha thrombin inhibition, slope normalized to DMSO” value ([1]; peptide 4.07E-03 uM) was 99.1 and 96.8 and 105.4. For the same compound, the “Human alpha thrombin inhibition, slope normalized to DMSO” value ([1]; peptide 4.17E+00 uM) was 57.2 and 53.3 and 58.0, the “Human alpha thrombin inhibition, slope normalized to DMSO” value ([1]; peptide 5.09E-04 uM) was 99.5 and 108.3 and 102.0 and the “Human alpha thrombin inhibition, slope normalized to DMSO” value ([1]; peptide 5.21E-01 uM) was 89.3 and 86.3 and 89.6. The “Human alpha thrombin inhibition, slope normalized to DMSO” value ([1]; peptide 6.36E-05 uM) was 101.1 and 95.4 and 95.5, the “Human alpha thrombin inhibition, slope normalized to DMSO” value ([1]; peptide 6.51E-02 uM) was 97.1 and 92.8 and 96.9 and the “Human alpha thrombin inhibition, slope normalized to DMSO” value ([1]; peptide 6.67E+01 uM) was 14.5 and 13.5 and 16.4. The “Human alpha thrombin inhibition, slope normalized to DMSO” value ([1]; peptide 8.14E-03 uM) was 99.5 and 100.5 and 98.6, the “Human alpha thrombin inhibition, slope normalized to DMSO” value ([1]; peptide 8.33E+00 uM) was 48.2 and 47.8 and 48.5 and the “Rat alpha thrombin inhibition, slope normalized to DMSO” value [2, 8] was 3.9 and 4.8 and 10.9. The “Rat alpha thrombin inhibition, slope normalized to DMSO” value ([2]; peptide 1.67E+01 uM) was 9.1 and 8.9 and 16.0, the “Rat alpha thrombin inhibition, slope normalized to DMSO” value ([2]; peptide 2.08E+00 uM) was 42.2 and 39.9 and 27.8 and the “Rat alpha thrombin inhibition, slope normalized to DMSO” value ([2]; peptide 3.33E+01 uM) was 5.4 and 4.9 and 14.0. For the same compound, the “Rat alpha thrombin inhibition, slope normalized to DMSO” value ([2]; peptide 4.17E+00 uM) was 24.5 and 25.5 and 24.4, the “Rat alpha thrombin inhibition, slope normalized to DMSO” value ([2]; peptide 6.67E+01 uM) was 4.0 and 4.6 and 11.6 and the “Rat alpha thrombin inhibition, slope normalized to DMSO” value ([2]; peptide 8.33E+00 uM) was 18.9 and 18.5 and 19.5. For the same compound, the “SGF stability, Residual peptide Average” value [3] was 98.89, the “SGF stability, Residual peptide” value [3] was 99.89 and 99.67 and 97.09 and the remaining at 8 h [3] was 99 ± 2%. The remaining at 8 h [4] was 92 ± 9%, the “SIF stability, Residual peptide Average” value [5] was 91.64 and the “SIF stability, Residual peptide” value [5] was 89.51 and 84.30 and 101.11. The “PAMPA permeability: % permeability” value [6] was 2.5 ± 1.2%, the Papp at 50 μM [6] was 0.151 ×10⁻⁶ cm/s and the “Permeability% Average” value [6] was 2.5%. The “Permeability% R1” value [6] was 3.72%, the “Permeability% R3” value [6] was 2.35% and the microsomal CLint [7, 9] was 48.3 µL/min/mg. The microsomal CLint [7, 10] was 57.4 µL/min/mg, the microsomal CLint [7, 11] was 60.2 µL/min/mg and the half-life [7, 12] was 28.7 min. The half-life [7, 13] was 24.2 min, the half-life [7, 14] was 23 min and the half-life ([7]; Metabolic stability: Half life T1/2 (min), RLMs, mean and SD, three measurements) was 25 ± 2 min. It also gave a microsomal CLint [7, 15] of 55 ± 5 µL/min/mg.

With `O=C(N[C@H]1CSCc2cccc(n2)CSCCNC(=O)[C@H](Cc2c[nH]cn2)NC(=O)C2(CCCC2)NC1=O)c1ccc(Cl)s1` [compound 29] the “Human alpha thrombin inhibition, slope normalized to DMSO” value ([1]; peptide 1.02E-03 uM) was 85.3 and 95.8 and 95.4, the “Human alpha thrombin inhibition, slope normalized to DMSO” value ([1]; peptide 1.04E+00 uM) was 95.4 and 93.0 and 98.3 and the “Human alpha thrombin inhibition, slope normalized to DMSO” value ([1]; peptide 1.27E-04 uM) was 99.0 and 98.5 and 95.5. The “Human alpha thrombin inhibition, slope normalized to DMSO” value ([1]; peptide 1.30E-01 uM) was 95.8 and 97.3 and 101.8, the “Human alpha thrombin inhibition, slope normalized to DMSO” value [1, 8] was 27.0 and 31.2 and 38.6 and the “Human alpha thrombin inhibition, slope normalized to DMSO” value ([1]; peptide 1.63E-02 uM) was 73.4 and 96.6 and 101.4. For the same compound, the “Human alpha thrombin inhibition, slope normalized to DMSO” value ([1]; peptide 1.67E+01 uM) was 71.8 and 71.9 and 74.8, the “Human alpha thrombin inhibition, slope normalized to DMSO” value ([1]; peptide 2.03E-03 uM) was 97.6 and 95.9 and 99.5 and the “Human alpha thrombin inhibition, slope normalized to DMSO” value ([1]; peptide 2.08E+00 uM) was 93.5 and 84.6 and 95.9. The “Human alpha thrombin inhibition, slope normalized to DMSO” value ([1]; peptide 2.54E-04 uM) was 96.0 and 96.2 and 102.6, the “Human alpha thrombin inhibition, slope normalized to DMSO” value ([1]; peptide 2.60E-01 uM) was 94.7 and 95.0 and 96.9 and the “Human alpha thrombin inhibition, slope normalized to DMSO” value ([1]; peptide 3.18E-05 uM) was 99.1 and 98.5 and 101.4. The “Human alpha thrombin inhibition, slope normalized to DMSO” value ([1]; peptide 3.26E-02 uM) was 99.8 and 95.1 and 95.9, the “Human alpha thrombin inhibition, slope normalized to DMSO” value ([1]; peptide 3.33E+01 uM) was 58.8 and 60.9 and 67.1 and the “Human alpha thrombin inhibition, slope normalized to DMSO” value ([1]; peptide 4.07E-03 uM) was 99.1 and 95.8 and 99.3. For the same compound, the “Human alpha thrombin inhibition, slope normalized to DMSO” value ([1]; peptide 4.17E+00 uM) was 86.3 and 86.6 and 97.3, the “Human alpha thrombin inhibition, slope normalized to DMSO” value ([1]; peptide 5.09E-04 uM) was 101.5 and 95.7 and 97.4 and the “Human alpha thrombin inhibition, slope normalized to DMSO” value ([1]; peptide 5.21E-01 uM) was 92.8 and 93.8 and 98.4. The “Human alpha thrombin inhibition, slope normalized to DMSO” value ([1]; peptide 6.36E-05 uM) was 106.0 and 98.0 and 105.2, the “Human alpha thrombin inhibition, slope normalized to DMSO” value ([1]; peptide 6.51E-02 uM) was 96.1 and 98.8 and 99.3 and the “Human alpha thrombin inhibition, slope normalized to DMSO” value ([1]; peptide 6.67E+01 uM) was 48.6 and 47.5 and 55.0. The “Human alpha thrombin inhibition, slope normalized to DMSO” value ([1]; peptide 8.14E-03 uM) was 95.7 and 98.2 and 99.1, the “Human alpha thrombin inhibition, slope normalized to DMSO” value ([1]; peptide 8.33E+00 uM) was 83.7 and 83.2 and 97.0 and the “Rat alpha thrombin inhibition, slope normalized to DMSO” value [2, 8] was 11.0 and 10.6 and 9.7. The “Rat alpha thrombin inhibition, slope normalized to DMSO” value ([2]; peptide 1.67E+01 uM) was 45.8 and 45.5 and 45.1, the “Rat alpha thrombin inhibition, slope normalized to DMSO” value ([2]; peptide 2.08E+00 uM) was 86.8 and 87.3 and 87.0 and the “Rat alpha thrombin inhibition, slope normalized to DMSO” value ([2]; peptide 3.33E+01 uM) was 28.5 and 28.7 and 27.9. For the same compound, the “Rat alpha thrombin inhibition, slope normalized to DMSO” value ([2]; peptide 4.17E+00 uM) was 77.5 and 87.0 and 76.0, the “Rat alpha thrombin inhibition, slope normalized to DMSO” value ([2]; peptide 6.67E+01 uM) was 19.6 and 18.1 and 18.5 and the “Rat alpha thrombin inhibition, slope normalized to DMSO” value ([2]; peptide 8.33E+00 uM) was 63.7 and 62.1 and 64.2. For the same compound, the “SGF stability, Residual peptide Average” value [3] was 100.77, the “SGF stability, Residual peptide” value [3] was 105.91 and 102.30 and 94.11 and the remaining at 8 h [3] was 101 ± 8%. For the same compound, the remaining at 8 h [4] was 92 ± 16%, the “SIF stability, Residual peptide Average” value [5] was 92.07 and the “SIF stability, Residual peptide” value [5] was 101.03 and 73.69 and 101.48. The “PAMPA permeability: % permeability” value [6] was 0.16 ± 0.08%, the Papp at 50 μM [6] was 0.00933 ×10⁻⁶ cm/s and the “Permeability% Average” value [6] was 0.157%. The “Permeability% R1” value [6] was 0.22%, the “Permeability% R3” value [6] was 0.18% and the microsomal CLint [7, 9] was 10.5 µL/min/mg. It also gave a microsomal CLint [7, 10] of 5.63 µL/min/mg, a microsomal CLint [7, 11] of 8.11 µL/min/mg and a half-life [7, 12] greater than 60 min. It also gave a half-life [7, 13] greater than 60 min, a half-life [7, 14] greater than 60 min and a microsomal CLint [7, 15] of 8.1 ± 2 µL/min/mg.
